Reference: the supplement of paper PMC10307832

Experiments:
Experiment in all cases: relative viability (nuclei count vs DMSO), 5 days (fraction); higher = more cells survive
[1] = compound: CCOc1cc2ncc(C#N)c(Nc3ccc(OCc4ccccn4)c(Cl)c3)c2cc1NC(=O)/C=C/CN(C)C [Neratinib] + CS(=O)(=O)CCNCc1ccc(-c2ccc3ncnc(Nc4ccc(OCc5cccc(F)c5)c(Cl)c4)c3c2)o1 [Lapatinib] (partner 2 µM)
Outline: (§1)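 Lung cancer cell lines in 1536-well plates were dosed by pin tool the day after seeding, either with one drug alone or with a fixed anchor-drug dose plus five library-drug doses (not always all listed) in √10 steps. After 5 days, cells were fixed and their nuclei stained in one step (final 0.05% Triton X-100, 1% formaldehyde, 1 ug/ml Hoechst), then counted on 4× images. Relative viability is the nuclei count in treated wells divided by that in vehicle wells. Values are medians of duplicate plates.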

[2] = compound: CCOc1cc2ncc(C#N)c(Nc3ccc(OCc4ccccn4)c(Cl)c3)c2cc1NC(=O)/C=C/CN(C)C [Neratinib] + O=C(c1cc(Cc2n[nH]c(=O)c3ccccc23)ccc1F)N1CCN(C(=O)C2CC2)CC1 [Olaparib] (partner 8 µM)
Outline: as §1

[3] = compound: CCOc1cc2ncc(C#N)c(Nc3ccc(OCc4ccccn4)c(Cl)c3)c2cc1NC(=O)/C=C/CN(C)C [Neratinib] + NC(=O)Nc1cc(-c2cccc(F)c2)sc1C(=O)N[C@H]1CCCNC1 [AZD7762] (partner 0.2 µM)
Outline: as §1

[4] = compound: CCOc1cc2ncc(C#N)c(Nc3ccc(OCc4ccccn4)c(Cl)c3)c2cc1NC(=O)/C=C/CN(C)C [Neratinib] + Nc1ncn([C@H]2C[C@H](O)[C@@H](CO)O2)c(=O)n1 [Decitabine] (partner 2 µM)
Outline: as §1

Cell Line	relative viability ([1]; first compound 0.01 µM)	relative viability ([1]; first compound 0.03162 µM)	relative viability ([1]; first compound 0.1 µM)	relative viability ([1]; first compound 0.3162 µM)	relative viability ([1]; first compound 1 µM)	relative viability ([2]; first compound 0.01 µM)	relative viability ([2]; first compound 0.03162 µM)	relative viability ([2]; first compound 0.1 µM)	relative viability ([2]; first compound 0.3162 µM)	relative viability ([2]; first compound 1 µM)	relative viability ([3]; first compound 0.01 µM)	relative viability ([3]; first compound 0.03162 µM)	relative viability ([3]; first compound 0.1 µM)	relative viability ([3]; first compound 0.3162 µM)	relative viability ([3]; first compound 1 µM)	relative viability ([4]; first compound 0.01 µM)	relative viability ([4]; first compound 0.03162 µM)	relative viability ([4]; first compound 0.1 µM)	relative viability ([4]; first compound 0.3162 µM)	relative viability ([4]; first compound 1 µM)
IA-LM	0.708	0.822	0.63	0.914	0.619	0.985	0.82	0.715	0.838	0.517	–	–	–	–	–	–	–	–	–	–
LCLC-103H	–	–	–	–	–	0.63	0.85	0.705	0.726	0.642	0.818	0.812	0.655	0.857	0.68	0.772	0.8	0.585	0.761	0.7
NCI-H441	–	–	–	–	–	0.57	0.438	0.488	0.48	0.417	1.12	1.32	0.958	0.987	0.73	0.255	0.246	0.235	0.209	0.2
NCI-H520	1	1	0.858	–	0.682	0.303	0.321	–	0.349	0.194	–	–	–	–	–	0.604	0.547	–	–	0.46
NCI-H522	–	–	–	–	–	0.598	0.5	0.558	0.573	0.459	0.781	0.844	0.878	0.804	0.718	0.719	0.671	0.711	0.557	0.573
NCI-H661	0.563	0.45	0.431	0.427	0.312	0.838	0.743	0.555	0.605	0.534	–	–	–	–	–	–	0.513	0.38	0.331	0.337
NCI-H1563	0.921	0.975	0.889	1.57	0.843	–	–	–	–	–	–	–	–	–	–	–	–	–	–	–
NCI-H1648	–	–	–	–	–	0.855	0.917	0.806	0.643	0.427	0.676	–	0.491	0.552	0.444	0.505	0.389	0.384	0.352	0.366
NCI-H1650	–	0.66	0.736	0.84	0.742	0.867	0.712	0.717	0.652	0.796	–	–	–	–	–	0.398	0.474	0.474	0.472	0.613
NCI-H1703	1.05	1.29	0.924	0.79	0.244	0.536	0.486	0.402	0.218	0.162	0.148	0.135	0.164	0.111	0.118	–	–	–	–	–
NCI-H2009	0.939	1.15	0.862	0.834	1.52	0.691	0.752	0.65	0.689	0.732	–	–	–	–	–	0.358	0.396	0.342	0.447	0.387
NCI-H2023	0.888	0.804	0.758	0.878	0.723	0.448	0.415	0.365	0.42	0.386	–	–	–	–	–	0.245	0.232	0.206	0.217	0.376
NCI-H2228	1.03	1.26	1.01	0.924	0.259	0.943	0.576	0.589	0.425	0.199	–	–	–	–	–	–	–	–	–	–
NCI-H2342	–	–	–	–	–	0.397	0.416	0.385	0.331	0.298	0.519	0.499	0.408	0.267	0.379	–	0.829	0.743	0.558	0.649
SK-LU-1	0.921	0.904	0.809	0.74	0.507	0.486	0.549	0.413	0.432	0.314	–	–	–	–	–	0.662	0.796	0.588	0.579	0.421
SK-MES-1	0.512	0.479	0.393	0.435	0.364	0.807	0.778	0.631	0.264	0.233	–	–	–	–	–	0.401	0.403	0.3	0.299	0.221
SW 900	–	–	–	–	–	0.975	0.826	0.714	0.662	0.607	0.696	0.753	0.526	0.54	0.409	0.438	0.43	0.427	0.514	0.469
SW 1573	1.27	1.13	1.24	1.15	1.16	0.634	0.444	0.374	0.391	0.287	–	–	–	–	–	0.466	0.628	0.574	0.507	0.265
UMC-11	1.03	1.11	0.604	0.841	0.745	0.362	0.388	0.33	0.361	0.299	–	–	–	–	–	0.324	0.574	0.634	0.414	0.194
